# Legend:
# [1] = target: T1, skeletal SR (SERCA1a only) (Oryctolagus cuniculus, UniProt P04191); assay: Ca-ATPase activity of skeletal SR (SSR), NADH-linked enzyme-coupled assay; format: biochemical, rabbit
# T1 construct: Skeletal muscle SR membrane vesicles were isolated from longissimus dorsi obtained from New Zealand white rabbits; from tissue; host or cells: rabbit longissimus dorsi skeletal muscle, SR membrane vesicles
# Method: To further examine the functional effects of Hit compounds, Ca-ATPase assays were performed on both skeletal SR (SERCA1a only) and cardiac SR (SERCA2a + PLB) at a series of Ca concentrations ranging from pCa 5 to 8.
# Skeletal muscle SR membrane vesicles were isolated from longissimus dorsi obtained from New Zealand white rabbits, as previously described. Cardiac SR membrane vesicles were isolated from ventricular myocardium obtained from fresh pig hearts. All experimental protocols were reviewed and approved by University of Minnesota’s Institutional Animal Care and Use Committee, an Association for Assessment and Accreditation of Laboratory Animal Care institution.
# An enzyme-coupled, NADH-linked ATPase assay was used to measure SERCA ATPase activity in 96-well microplates. Each well contained 0.8 μg (skeletal) or 2 μg (cardiac) of SR vesicles adjusted for the different SERCA contents of skeletal and cardiac SR, 50 mM MOPS (pH 7.0), 100 mM KCl, 5 mM MgCl2, 1 mM EGTA, 0.2 mM NADH, 1 mM phosphoenol pyruvate, 10 IU/mL of pyruvate kinase, 10 IU/mL of lactate dehydrogenase, 3.5 μg/mL of the Ca ionophore A23187, and CaCl2 added to set free [Ca] to the desired values. The assay was started upon the addition of ATP at a final concentration of 5 mM and read in a SpectraMax Plus microplate spectrophotometer rom Molecular Devices (Sunnyvale, CA).
# [2] = system: skeletal muscle SR Ca-ATPase; design: method as in PMID 12022919; settings: high concentrations (50 µM); cited from earlier work
# [3] = target: SERCA2a-PLB complex (GFP-SERCA2a / RFP-PLB in HEK293 cells) (Homo sapiens, UniProt P16615+P26678, C36A/C41F/C46A); assay: FRET of SERCA2a-PLB biosensor in saponin-permeabilized cells at low and high Ca; settings: 100 nM Tg, low Ca (100 nM) vs high Ca (10 µM)
# Sequence of SERCA2a-PLB complex (GFP-SERCA2a / RFP-PLB in HEK293 cells) (P16615 1-997 isoform P16615-2, stated change not applied): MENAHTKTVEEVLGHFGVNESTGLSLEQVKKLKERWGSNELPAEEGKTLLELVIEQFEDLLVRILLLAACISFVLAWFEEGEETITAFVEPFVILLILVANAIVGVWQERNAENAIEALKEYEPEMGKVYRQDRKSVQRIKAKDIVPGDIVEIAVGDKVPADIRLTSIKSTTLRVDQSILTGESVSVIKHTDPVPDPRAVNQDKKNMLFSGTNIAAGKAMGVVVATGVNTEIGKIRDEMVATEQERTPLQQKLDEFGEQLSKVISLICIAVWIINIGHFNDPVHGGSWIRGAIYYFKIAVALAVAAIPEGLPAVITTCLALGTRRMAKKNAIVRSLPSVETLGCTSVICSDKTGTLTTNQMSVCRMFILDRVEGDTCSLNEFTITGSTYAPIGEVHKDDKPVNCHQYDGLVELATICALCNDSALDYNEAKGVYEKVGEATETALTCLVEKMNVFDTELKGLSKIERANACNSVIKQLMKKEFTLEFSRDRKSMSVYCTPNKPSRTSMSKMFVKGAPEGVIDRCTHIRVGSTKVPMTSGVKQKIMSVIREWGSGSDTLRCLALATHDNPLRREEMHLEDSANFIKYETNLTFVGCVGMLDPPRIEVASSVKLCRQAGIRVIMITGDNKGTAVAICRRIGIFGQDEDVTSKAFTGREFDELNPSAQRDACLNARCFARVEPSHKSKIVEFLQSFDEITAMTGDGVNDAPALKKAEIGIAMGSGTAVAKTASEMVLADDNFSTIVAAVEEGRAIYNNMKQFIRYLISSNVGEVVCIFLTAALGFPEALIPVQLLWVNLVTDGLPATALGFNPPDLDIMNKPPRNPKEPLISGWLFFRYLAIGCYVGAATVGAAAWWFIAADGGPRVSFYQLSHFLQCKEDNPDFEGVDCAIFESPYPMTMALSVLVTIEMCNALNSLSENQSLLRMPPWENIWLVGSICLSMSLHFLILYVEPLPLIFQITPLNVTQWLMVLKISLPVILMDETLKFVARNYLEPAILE
# Sequence of SERCA2a-PLB complex (GFP-SERCA2a / RFP-PLB in HEK293 cells) (P26678 whole entry C36A/C41F/C46A): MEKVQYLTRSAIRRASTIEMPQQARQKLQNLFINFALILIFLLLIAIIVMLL
# Method: To test this, we quantified FRET changes in permeabilized cells under conditions of low Ca (100 nM) and high Ca (10 µM).
# (a) Left- FLT measurements in saponin-permeabilized cells under conditions of low Ca (100 nM) and high Ca (10 µM), and in the absence and presence (100 nM) of the SERCA inhibitor thapsigargin (Tg). […] Error bars indicate SD (n = 3). Statistical differences determined using 1-way ANOVA followed by Tukey post hoc analysis (more detailed analysis is provided in Supplemental Table 4). *P ≤ 0.01 and N.S. indicating P ≥ 0.05.
# To generate SERCA2a-PLB biosensor, HEK293 cells were transiently transfected using Lipofectamine 3000 with GFP-SERCA2a and RFP-PLB in a 1:7 molar ratio for the screen. Cells were then assayed 48 hours post-transfection. For cell permeabilization experiments, cells were trypsinized (TrypLE, Thermo Fischer Scientific), PBS-washed (three times), and resuspended in a homogenization buffer (20 mM MOPS, 0.5 MgCl2, protease inhibitor cocktail (Roche, Basel, Switzerland)). Saponin (Sigma-Aldrich) was added to a final concentration of 10 µg/mL and cells were incubated for 4 min at 37 °C water bath. Saponin was removed by centrifugation for 3 min, cells were washed twice with homogenization buffer, and resuspended in homogenization buffer.
# T1 sequence (P04191 1-994 isoform P04191-2): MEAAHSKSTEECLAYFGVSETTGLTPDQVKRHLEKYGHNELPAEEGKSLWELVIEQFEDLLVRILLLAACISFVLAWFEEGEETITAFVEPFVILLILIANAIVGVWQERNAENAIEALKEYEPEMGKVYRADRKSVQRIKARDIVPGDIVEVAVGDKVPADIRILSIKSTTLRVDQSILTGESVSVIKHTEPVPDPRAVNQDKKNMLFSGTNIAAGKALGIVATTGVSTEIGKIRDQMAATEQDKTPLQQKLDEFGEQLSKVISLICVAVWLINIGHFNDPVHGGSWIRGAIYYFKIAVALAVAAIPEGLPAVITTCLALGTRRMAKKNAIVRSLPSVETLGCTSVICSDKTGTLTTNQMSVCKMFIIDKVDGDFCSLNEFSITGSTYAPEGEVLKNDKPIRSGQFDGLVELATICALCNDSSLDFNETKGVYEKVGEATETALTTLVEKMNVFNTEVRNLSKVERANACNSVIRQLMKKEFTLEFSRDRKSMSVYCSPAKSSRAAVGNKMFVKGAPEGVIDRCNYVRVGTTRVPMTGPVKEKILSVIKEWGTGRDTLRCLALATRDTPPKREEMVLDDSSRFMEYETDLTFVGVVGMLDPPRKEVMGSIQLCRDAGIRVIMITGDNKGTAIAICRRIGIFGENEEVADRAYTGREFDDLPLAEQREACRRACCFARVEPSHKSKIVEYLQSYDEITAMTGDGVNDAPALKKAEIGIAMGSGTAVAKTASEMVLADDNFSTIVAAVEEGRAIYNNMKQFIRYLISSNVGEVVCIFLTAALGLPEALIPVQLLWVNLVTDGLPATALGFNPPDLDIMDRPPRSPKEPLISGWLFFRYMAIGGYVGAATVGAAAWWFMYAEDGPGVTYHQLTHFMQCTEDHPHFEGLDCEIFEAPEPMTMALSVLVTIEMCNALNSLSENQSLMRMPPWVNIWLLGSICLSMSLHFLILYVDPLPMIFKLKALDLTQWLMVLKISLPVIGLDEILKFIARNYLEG
Compound,EC50 ([1]; SSR),"Vmax @ 30 µM ([1]; SSR, 30 µM compound)","ΔVmax @ 30 µM ([1]; SSR, 30 µM compound, relative to DMSO control)","EC50 ([1]; SSR, listed as ivermectin)",decrease of Vmax ([1]; skeletal SR),Ca-ATPase activity inhibited [2],effect on Ca-dependent decrease in FRET [3]
Ivermectin,5.75 µM,0.32 i.u.,-87.6%,5.8 µM,88%,90%,–
C/C=C(/C)C(=O)O[C@H]1C(C)=C2[C@H]([C@@H]1OC(=O)CCCCCCC)[C@@](C)(OC(C)=O)C[C@H](OC(=O)CCC)[C@@]1(O)[C@H]2OC(=O)[C@@]1(C)O [thapsigargin],–,–,–,–,–,–,prevents the Ca-dependent decreases in FRET

# Reference: PMC6105598, “Targeting protein-protein interactions for therapeutic discovery via FRET-based high-throughput screening in living cells” (Scientific Reports, 2018)
